Patent US20260001928A1 (CORTERIA PHARMACEUTICALS, priority 2022, published 2026)
*1 amine or outer side, *2 acyl side, *3 side chain or, on linkers, in order; H or OH if unused. Where a SMILES comes first, the peptide text is derived from it. Side-chain parts run from the residue outwards. [ ]: non-standard residue; d: D form. The star is where a group is joined. C20 diacid = O=C(O)CCCCCCCCCCCCCCCCCCC(=O)*; γGlu = O=C(O)[C@H](CCC(=O)[*:2])N[*:1]; Thp = NC1(C(=O)O)CCOCC1; Aib = CC(C)(N)C(=O)O

Key:
Sprague Dawley rats = test: Effect on systolic blood pressure, telemetry in Sprague Dawley rats; format: in vivo, rat; conditions: 0.1 mg/kg SC
In short: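 Sprague Dawley rats with abdominal-aorta telemetry catheters, recovered ≥10 days, received 0.1 mg/kg SC of compound or vehicle. Systolic pressure recorded 1 h pre-dose as baseline, then continuously up to 48 hours, expressed as % change from baseline; duration of action is last time point with a BP effect (n=2).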

[1] = Pharmacokinetics in male Sprague Dawley rats after subcutaneous administration; format: in vivo; conditions: plasma, rat, IV, 0.05 mg/kg
[2] = Chemical stability in buffer (pH 7.4 / pH 4.5), % purity loss; format: physicochemical; conditions: 40° C. vs 5° C., 14 or 28 days; for Buffer stability pH 7.4 % purity loss: 100 mM phosphate buffer pH 7.4
In short: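 Compounds dissolved at 10 mg/mL target in 100 mM phosphate (pH 7.4) or 100 mM acetate (pH 4.5) buffer for 1 h at room temperature, then centrifuged. Diluted supernatant stored at 5 °C or 40 °C for 14 or 28 days; % purity loss by LC-UV.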

[3] = In vitro subcutaneous tissue supernatant (SCts) stability and metabolite identification, rat; format: in vitro ADME; set-up: remaining at 2 h: dose or concentration left out as unconfirmed; conditions: male, Sprague Dawley; rat subcutaneous tissue supernatant (SCts), 37° C, 2 h
CFR1R receptor = biological target: T1, CFR1R receptor (Homo sapiens, UniProt P34998); test: Activity at anti-target CFR1R receptor, cAMP assay in CRF1R-overexpression CHO-K1 cells; format: cell-based; conditions: 100% = Sauvagine at 100 nM
T1 construct: host or cells: CHO-K1 (clone 2)
T1 sequence (P34998 24-415): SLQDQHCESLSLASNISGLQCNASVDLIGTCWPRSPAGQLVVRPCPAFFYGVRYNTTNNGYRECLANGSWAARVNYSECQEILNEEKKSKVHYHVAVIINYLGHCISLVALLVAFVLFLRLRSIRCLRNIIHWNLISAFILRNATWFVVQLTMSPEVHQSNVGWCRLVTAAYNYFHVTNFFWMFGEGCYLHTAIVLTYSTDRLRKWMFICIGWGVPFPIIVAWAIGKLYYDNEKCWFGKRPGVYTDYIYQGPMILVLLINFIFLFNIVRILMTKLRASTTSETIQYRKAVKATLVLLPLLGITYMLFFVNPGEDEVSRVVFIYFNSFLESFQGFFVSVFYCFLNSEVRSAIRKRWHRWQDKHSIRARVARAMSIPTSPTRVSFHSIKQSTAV
In short: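 Signal is normalised to 100 nM Sauvagine, taken as 100% activation, in clone 2 cells plated at a final 4000 cells/well from frozen stocks.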

human CRF2a receptor = biological target: T2, human CRF2a receptor (Homo sapiens, UniProt Q13324); test: Activity at human CRF2a receptor, cAMP functional assay in TeloHEAC cells; format: cell-based; conditions: TeloHEAC cells stably expressing human CRF2a receptor, relative to urocortin 2 (100 nM = 100%)
T2 construct: expressed in transfected cells; host or cells: TeloHEAC cells
T2 sequence (Q13324 1-411): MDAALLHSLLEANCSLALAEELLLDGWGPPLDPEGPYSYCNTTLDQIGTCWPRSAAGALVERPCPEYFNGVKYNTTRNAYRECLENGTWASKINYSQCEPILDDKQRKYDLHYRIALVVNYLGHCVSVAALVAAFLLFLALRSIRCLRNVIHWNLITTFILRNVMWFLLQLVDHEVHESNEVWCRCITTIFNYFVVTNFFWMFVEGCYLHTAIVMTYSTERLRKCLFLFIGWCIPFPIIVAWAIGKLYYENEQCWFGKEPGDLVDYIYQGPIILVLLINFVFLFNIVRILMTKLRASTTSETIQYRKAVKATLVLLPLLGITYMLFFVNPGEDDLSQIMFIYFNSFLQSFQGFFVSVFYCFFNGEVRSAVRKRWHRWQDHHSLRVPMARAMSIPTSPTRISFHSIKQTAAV
In short: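 cAMP accumulation was measured by HTRF 665/620 nm ratio after 30 min at 37° C compound exposure (16 twofold dilutions) of CRF2a-expressing TeloHEAC cells, 10000/well, in HEPES-buffered HBSS plus IBMX. Activity was normalised to urocortin 2 at 100 nM (100%), and EC50 was the concentration giving half-maximal activation.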

Structure (SMILES)	Systolic blood pressure (Mean) % change from baseline, 8 h (Sprague Dawley rats; 8 h, n=2) [%]	Systolic blood pressure (Mean) % change from baseline, 12 h (Sprague Dawley rats; 12 h, n=2) [%]	Systolic blood pressure (Mean) % change from baseline, 24 h (Sprague Dawley rats; 24 h, n=2) [%]	Duration of action (Sprague Dawley rats; last time point with an effect on BP still observed) [h]	AUC(0-t) [1] [ng·h/mL]	half-life [1] [h]	Buffer stability pH 4.5 % purity loss ([2]; 100 mM acetate buffer pH 4.5)	Buffer stability pH 7.4 % purity loss [2]	remaining at 2 h [3] [%]	Emax (% I) (CFR1R receptor)	EC50 (CFR1R receptor; cAMP) [nM]	EC50 (human CRF2a receptor) [nM]
CC[C@H](C)[C@H](NC(C)=O)C(=O)N[C@H](C(=O)N[C@@H](CC(C)C)C(=O)N[C@@H](CO)C(=O)N[C@@H](CC(C)C)C(=O)N[C@@H](CC(=O)O)C(=O)N[C@@H](C(=O)N1CCC[C@H]1C(=O)N[C@H](C(=O)N[C@@H](CCCCN)C(=O)N[C@@H](CC(C)C)C(=O)N[C@@H](CCCCNC(=O)CC[C@H](NC(=O)CCCCCCCCCCCCCCCCCCC(=O)O)C(=O)O)C(=O)N[C@@H](CCCCN)C(=O)N[C@H](C(=O)N[C@@H](CC(C)C)C(=O)N[C@@H](CC(C)C)C(=O)N[C@@H](CCC(=O)O)C(=O)N[C@@H](CCC(N)=O)C(=O)N[C@@H](CCC(=O)O)C(=O)N[C@@H](CCCCN)C(=O)N[C@@H](CCC(N)=O)C(=O)N[C@@H](CCCCN)C(=O)N[C@@H](CCCCN)C(=O)N[C@@H](CCC(N)=O)C(=O)N[C@@H](CCCNC(=N)N)C(=O)N[C@@H](CCC(=O)O)C(=O)N[C@@H](CCC(N)=O)C(=O)N[C@@H](C)C(=O)N[C@@H](CCC(=O)O)C(=O)N[C@H](C(=O)N[C@@H](CC(N)=O)C(=O)NC1(C(=O)N[C@@H](CCC(N)=O)C(=O)N[C@H](C(=O)N[C@@H](CC(C)C)C(=O)N[C@@H](C)C(=O)N[C@@H](CCC(N)=O)C(=O)N[C@H](C(N)=O)C(C)C)[C@@H](C)CC)CCOCC1)[C@@H](C)O)[C@@H](C)CC)[C@@H](C)CC)C(C)C)C(C)C [compound 210] (Ac-IVLSLD[dV]PIKLK([γGlu-C20 diacid])KILLEQEKQKKQREQAETN[Thp]QILAQV-NH2)	−13	−13	−6	>24	7780	8.4	0.0/0.0 ^ %	0.0/0.0 ^ %	72	–	–	–
CC[C@H](C)[C@H](NC(C)=O)C(=O)N[C@H](C(=O)N[C@@H](CC(C)C)C(=O)N[C@@H](CO)C(=O)N[C@@H](CC(C)C)C(=O)N[C@@H](CC(=O)O)C(=O)N[C@@H](C(=O)N1CCC[C@H]1C(=O)N[C@H](C(=O)N[C@@H](CCCCN)C(=O)N[C@@H](CC(C)C)C(=O)N[C@@H](CCCCNC(=O)CC[C@H](NC(=O)CC[C@H](NC(=O)CCCCCCCCCCCCCCCCCCC(=O)O)C(=O)O)C(=O)O)C(=O)N[C@@H](CCCCN)C(=O)N[C@H](C(=O)N[C@@H](CC(C)C)C(=O)N[C@@H](CC(C)C)C(=O)N[C@@H](CCC(=O)O)C(=O)N[C@@H](CCC(N)=O)C(=O)N[C@@H](CCC(=O)O)C(=O)N[C@@H](CCCCN)C(=O)N[C@@H](CCC(N)=O)C(=O)N[C@@H](CCCCN)C(=O)N[C@@H](CCC(=O)O)C(=O)N[C@@H](CCC(N)=O)C(=O)N[C@@H](CCCNC(=N)N)C(=O)N[C@@H](CCC(=O)O)C(=O)N[C@@H](CCC(N)=O)C(=O)N[C@@H](C)C(=O)N[C@@H](CCC(=O)O)C(=O)N[C@H](C(=O)N[C@@H](CC(N)=O)C(=O)NC(C)(C)C(=O)N[C@@H](CCC(N)=O)C(=O)N[C@H](C(=O)N[C@@H](CC(C)C)C(=O)N[C@@H](C)C(=O)N[C@@H](CCC(N)=O)C(=O)N[C@H](C(N)=O)C(C)C)[C@@H](C)CC)[C@@H](C)O)[C@@H](C)CC)[C@@H](C)CC)C(C)C)C(C)C [compound 241] (Ac-IVLSLD[dV]PIKLK([γGlu-γGlu-C20 diacid])KILLEQEKQKEQREQAETN[Aib]QILAQV-NH2)	–	–	–	–	6210	15	–	2.0/Not Tested %	68	7	> 250	0.56
